# Results reported in article PMC9775322, “An Integrated Analysis of Mechanistic Insights into Biomolecular Interactions and Molecular Dynamics of Bio-Inspired Cu(II) and Zn(II) Complexes towards DNA/BSA/SARS-CoV-2 3CL^pro by Molecular Docking-Based Virtual Screening and FRET Detection” (Biomolecules, 2022).
# Assays:
# CT-DNA = test: DNA thermal denaturation (biothermodynamic properties); assay type: binding, calf; details: for ΔS°: (ΔH°−ΔG°)/Tm; for ΔH°: Van't Hoff equation; for Tm °C of DNA-compound adduct / Tm (K) of DNA-compound adduct: compound 50 μM : CT-DNA 50 μM (1:1), 260 nm; for Tm °C of DNA-compound adduct: CT DNA alone 68 °C; for Tm (K) of DNA-compound adduct: CT DNA alone 341 K; for ΔTm °C: melting temperature change vs DNA alone; for ΔG°: −R·Tm·ln Km
# Description: The biothermodynamic properties were obtained from absorption titration by a UV–visible spectrophotometer, accomplished with a temperature-controlled sample container in both the presence and absence of the substances. In a 5 mM Tris-HCl/50 mM NaCl buffer solution with a pH of 7.4, each test substance (50 μM) was incubated with CT-DNA (50 μM) in a 1:1 ratio. The test materials were all warmed at a rate of five degrees Celsius per minute to temperatures between 25 and 100 °C, and the changes in absorbance at 260 nm were carefully monitored. […]
# ɛa is represented as the apparent absorption coefficient value for the MLCT band at a specific concentration of deoxyribonucleic acid and evaluated from Abs/[complex]. ɛ f and ɛb are the absorption coefficients for the chemical substance alone and completely interacted with deoxyribonucleic acid, respectively. ∆Amax = (Amax–A0); ∆A=(Ax–A0), where A0, Ax and Amax are denoted as the optical density of chemical substances alone, the middle form, and the completely interacted form with deoxyribonucleic acid, respectively.
# 2.2.3. Evaluation of biothermodynamic properties
# The thermal denaturation study of CT-DNA is an efficient tool for examining the stability of test compounds bound to double-stranded DNA. […]
# double to single stranded DNA. The biothermodynamic parameters also involve powerful proof for binding between test compounds and DNA. The denaturation of the biomolecules depends on T m, pH and non-physiological concentrations of salt, organic solvents and other chemical agents, etc. The DNA double helix breaks into two single strands as the temperature or pH rises, which is ascribed to the breaking of hydrophobic stacking attractions and the dissolution of H-bonds between the DNA base pairs as a result of the hydroxide ions' […]
# withdrawing of the hydrogen ions (H +) from DNA base pairs. It causes a hyperchromic shift […]
# inversely proportional to viscosity. Low salt concentration, conversely, can also denature DNA double-strands by eliminating the ions that stabilize the negative charges on the two strands from each other. By using UV-Vis analysis in a temperature-controlled sample holder, DNA thermal denaturation was carried out both in the absence and presence of the test compounds. In 5mM Tris-HCl /50 mM NaCl buffer (pH = 7.4) solution, each test substance (50 μM) was incubated in a 1:1 ratio with CT- DNA (50 μM). All samples were heated in the range of 25 to 100 °C at a rate of 5 °C per minute and the absorbance changes at 260 nm were constantly monitored. T m of DNA alone was evaluated as the midpoint of the sigmoid’ curves plotted absorbance vs temperature profiles. The Tm is depends on the double-stranded DNA stability. Due to substantial intercalation in DNA-complex adducts, the […]
# temperature. When increasing temperature, double-stranded DNA converts into two single strands at the melting point, which leads to hyperchromic effect due to reducing the base-base interaction. As compared to DNA alone at the same high temperature, the incubated DNA solution with test compounds leads to hyporchromic effect accompanied with red shift.
# Strong interactions between complexes and DNA, which restrict the separation of the double helix, cause the stabilization, and as a result, T m rises. In accordance with the T m, 50% of DNA is in its native double-stranded state, and the remaining 50% is in its denaturalized single-stranded state.
# ΔG° = – R.Tm. lnKm = ΔH°– Tm ΔS° (S10)
# Where K1 is represented as the binding constant value at 298 K (T r), the binding constant K 2 (Km), which indicates the temperature at which substances melt their DNA (T m K), This […]
# technique offers crucial data on binding constants and associated ΔG °, ΔS° and ΔH° findings for compound-deoxyribonucleic acid systems. […]
# not deliver definite confirmation for the exact mode of interactions. The experiment
# [1] = Superoxide scavenging assay; assay type: biochemical; details: 590 nm
compound,measurement,setting,value
"[Cu+2].[O-]c1ccccc1N=Cc1ccc(N2CCOCC2)cc1.[O-]c1ccccc1N=Cc1ccc(N2CCOCC2)cc1.c1cnc2c(c1)ccc1cccnc12 [(1b), [Cu^II(L)2(phen)]]",Binding Constant Kr (or) K1 @ 298 K,CT-DNA,20610 M⁻¹
same,ΔS°,CT-DNA,−7.6237 cal mol^−1 K^−1
same,ΔH°,CT-DNA,-8.1538 kcal/mol
same,Tm °C of DNA-compound adduct,CT-DNA,80.5 °C
same,Tm (K) of DNA-compound adduct,CT-DNA,353.5 K
same,ΔTm °C,CT-DNA,12.5 °C
same,ΔG°,CT-DNA,-5.4588 kcal/mol
same,"% Inhibition, superoxide",[1]; 40 µM,08.45%
same,"% Inhibition, superoxide",[1]; 80 µM,16.53%
same,"% Inhibition, superoxide",[1]; 120 µM,32.18%
same,"% Inhibition, superoxide",[1]; 160 µM,48.09%
same,"% Inhibition, superoxide",[1]; 200 µM,60.93%
same,"% Inhibition, superoxide",[1]; 240 µM,68.21%
same,IC50,[1],200 µM
"[O-]c1ccccc1N=Cc1ccc(N2CCOCC2)cc1.[O-]c1ccccc1N=Cc1ccc(N2CCOCC2)cc1.[Zn+2].c1cnc2c(c1)ccc1cccnc12 [(2b), [Zn^II(L)2(phen)]]",Binding Constant Kr (or) K1 @ 298 K,CT-DNA,19930 M⁻¹
same,ΔS°,CT-DNA,−9.1806 cal mol^−1 K^−1
same,ΔH°,CT-DNA,-8.5979 kcal/mol
same,Tm °C of DNA-compound adduct,CT-DNA,78.5 °C
same,Tm (K) of DNA-compound adduct,CT-DNA,351.5 K
same,ΔTm °C,CT-DNA,10.5 °C
same,ΔG°,CT-DNA,-5.3709 kcal/mol
same,"% Inhibition, superoxide",[1]; 40 µM,06.70%
same,"% Inhibition, superoxide",[1]; 80 µM,12.58%
same,"% Inhibition, superoxide",[1]; 120 µM,24.23%
same,"% Inhibition, superoxide",[1]; 160 µM,40.35%
same,"% Inhibition, superoxide",[1]; 200 µM,52.23%
same,"% Inhibition, superoxide",[1]; 240 µM,60.02%
"Oc1ccccc1N=Cc1ccc(N2CCOCC2)cc1 [(HL), 2-(4-morpholinobenzylideneamino)phenol]",Binding Constant Kr (or) K1 @ 298 K,CT-DNA,15169 M⁻¹
same,ΔS°,CT-DNA,−13.7851 cal mol^−1 K^−1
same,ΔH°,CT-DNA,-9.8083 kcal/mol
same,Tm °C of DNA-compound adduct,CT-DNA,74 °C
same,Tm (K) of DNA-compound adduct,CT-DNA,347.0 K
same,ΔTm °C,CT-DNA,6 °C
same,ΔG°,CT-DNA,-5.0249 kcal/mol
same,"% Inhibition, superoxide",[1]; 40 µM,05.23%
same,"% Inhibition, superoxide",[1]; 80 µM,10.74%
same,"% Inhibition, superoxide",[1]; 120 µM,18.85%
same,"% Inhibition, superoxide",[1]; 160 µM,33.55%
same,"% Inhibition, superoxide",[1]; 200 µM,40.91%
same,"% Inhibition, superoxide",[1]; 240 µM,50.42%
